PubChem BioAssay (NCI)
Several values for one entry are separate records, joined by “and”; a condition that tells them apart may be missing. Equal entries are not always repeated.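 Method: 48-hour compound exposure of cells in 96-well plates, five concentrations, linear interpolation of endpoints. GI50: concentration for 50% inhibition of growth. At the TGI there is no net growth.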

Test system: DMS 114 small cell lung
Assay: NCI tumour cell line growth inhibition, 48 h

SMILES	TGI [µM]
Nc1ccccc1S(=O)(=O)c1ccccc1	> 100
COc1cc2c(ccc3c4cc(OC)c(OC)cc4c[n+](C)c23)cc1O	74.7
CNC(=O)OCc1c(CO)nc(SC)n1C	> 100
CN(C)CC(CC1=C(CC(CN(C)C)N(C)C)CCC1)N(C)C (centres undefined)	> 100
O=C(OCN1C(=O)C2C3C=CC(C2C1=O)C1C2C(=O)N(COC(=O)C4CCCN4)C(=O)C2C31)C1CCCN1 (centres undefined)	> 60.6
[N-]=[N+]=CC(=O)c1ccccc1C#CCCc1ccccc1	23.6
CCCCCCCCC/C=C/C=C/C(=O)NCC(=O)NC1C(O)C(O)C(Nc2ncnc3nc[nH]c23)OC1C(O)CO (centres undefined)	> 100

Test system: DMS 273 small cell lung
Assay: NCI tumour cell line growth inhibition, 48 h

SMILES	TGI [µM]	GI50 [µM]
Nc1ccccc1S(=O)(=O)c1ccccc1	> 100	
COc1cc2c(ccc3c4cc(OC)c(OC)cc4c[n+](C)c23)cc1O	> 75	
CNC(=O)OCc1c(CO)nc(SC)n1C	> 100	
CN(C)CC(CC1=C(CC(CN(C)C)N(C)C)CCC1)N(C)C (centres undefined)	> 100	
O=c1cccccc1[O-].O=c1cccccc1[O-].[O]=[U+2]=[O]	58.3	22.6
O=C(OCN1C(=O)C2C3C=CC(C2C1=O)C1C2C(=O)N(COC(=O)C4CCCN4)C(=O)C2C31)C1CCCN1 (centres undefined)	> 56.4	
[N-]=[N+]=CC(=O)c1ccccc1C#CCCc1ccccc1	73.7	

Test system: HOP-18 NSCLC
Assay: NCI tumour cell line growth inhibition, 48 h

SMILES	TGI [µM]	GI50 [µM]
Nc1ccccc1S(=O)(=O)c1ccccc1	> 100	
COc1cc2c(ccc3c4cc(OC)c(OC)cc4c[n+](C)c23)cc1O	> 75	
CNC(=O)OCc1c(CO)nc(SC)n1C	> 100	
CN(C)CC(CC1=C(CC(CN(C)C)N(C)C)CCC1)N(C)C (centres undefined)	> 100	
O=c1cccccc1[O-].O=c1cccccc1[O-].[O]=[U+2]=[O]	97	41
O=C(OCN1C(=O)C2C3C=CC(C2C1=O)C1C2C(=O)N(COC(=O)C4CCCN4)C(=O)C2C31)C1CCCN1 (centres undefined)	> 100	
[N-]=[N+]=CC(=O)c1ccccc1C#CCCc1ccccc1	> 100	

Test system: KM20L2 colon
Assay: NCI tumour cell line growth inhibition, 48 h

SMILES	TGI	GI50 [µM]
Nc1ccccc1S(=O)(=O)c1ccccc1	> 100 µM	
COc1cc2c(ccc3c4cc(OC)c(OC)cc4c[n+](C)c23)cc1O	> 75 µM	
CNC(=O)OCc1c(CO)nc(SC)n1C	> 100 µM	
CN(C)CC(CC1=C(CC(CN(C)C)N(C)C)CCC1)N(C)C (centres undefined)	> 100 µM	
O=c1cccccc1[O-].O=c1cccccc1[O-].[O]=[U+2]=[O]	> 100 µM	32
O=C(OCN1C(=O)C2C3C=CC(C2C1=O)C1C2C(=O)N(COC(=O)C4CCCN4)C(=O)C2C31)C1CCCN1 (centres undefined)	> 100 µM	
[N-]=[N+]=CC(=O)c1ccccc1C#CCCc1ccccc1	62.7 µM	
CCCCCCCCC/C=C/C=C/C(=O)NCC(=O)NC1C(O)C(O)C(Nc2ncnc3nc[nH]c23)OC1C(O)CO (centres undefined)	0.0186 µM and 0.126 µM	

Test system: LXFL 529 NSCLC
Assay: NCI tumour cell line growth inhibition, 48 h

SMILES	TGI [µM]	GI50 [µM]
Nc1ccccc1S(=O)(=O)c1ccccc1	> 100	
O=c1cccccc1[O-].O=c1cccccc1[O-].[O]=[U+2]=[O]	82.6	28.6
O=C(OCN1C(=O)C2C3C=CC(C2C1=O)C1C2C(=O)N(COC(=O)C4CCCN4)C(=O)C2C31)C1CCCN1 (centres undefined)	> 100	
CCCCCCCCC/C=C/C=C/C(=O)NCC(=O)NC1C(O)C(O)C(Nc2ncnc3nc[nH]c23)OC1C(O)CO (centres undefined)		0.0467

Test system: P388 leukemia
Assay: NCI tumour cell line growth inhibition, 48 h

SMILES	TGI [µM]
COc1cc2c(ccc3c4cc(OC)c(OC)cc4c[n+](C)c23)cc1O	5.21
CNC(=O)OCc1c(CO)nc(SC)n1C	> 100
CN(C)CC(CC1=C(CC(CN(C)C)N(C)C)CCC1)N(C)C (centres undefined)	> 100

Test system: P388/ADR leukemia
Assay: NCI tumour cell line growth inhibition, 48 h

SMILES	TGI [µM]
COc1cc2c(ccc3c4cc(OC)c(OC)cc4c[n+](C)c23)cc1O	> 75
CNC(=O)OCc1c(CO)nc(SC)n1C	> 100
CN(C)CC(CC1=C(CC(CN(C)C)N(C)C)CCC1)N(C)C (centres undefined)	> 100

Test system: RXF-631 renal
Assay: NCI tumour cell line growth inhibition, 48 h

SMILES	TGI [µM]
Nc1ccccc1S(=O)(=O)c1ccccc1	> 100
O=C(OCN1C(=O)C2C3C=CC(C2C1=O)C1C2C(=O)N(COC(=O)C4CCCN4)C(=O)C2C31)C1CCCN1 (centres undefined)	> 100

Test system: SN12K1 renal
Assay: NCI tumour cell line growth inhibition, 48 h

SMILES	TGI [µM]
COc1cc2c(ccc3c4cc(OC)c(OC)cc4c[n+](C)c23)cc1O	14
CNC(=O)OCc1c(CO)nc(SC)n1C	> 100
CN(C)CC(CC1=C(CC(CN(C)C)N(C)C)CCC1)N(C)C (centres undefined)	> 100

Test system: SNB-78 CNS
Assay: NCI tumour cell line growth inhibition, 48 h

SMILES	TGI [µM]	GI50 [µM]
COc1cc2c(ccc3c4cc(OC)c(OC)cc4c[n+](C)c23)cc1O	> 75	
O=c1cccccc1[O-].O=c1cccccc1[O-].[O]=[U+2]=[O]	67.6	28.7
O=C(OCN1C(=O)C2C3C=CC(C2C1=O)C1C2C(=O)N(COC(=O)C4CCCN4)C(=O)C2C31)C1CCCN1 (centres undefined)	> 100	

Test system: XF 498 CNS
Assay: NCI tumour cell line growth inhibition, 48 h

SMILES	TGI [µM]	GI50 [µM]
COc1cc2c(ccc3c4cc(OC)c(OC)cc4c[n+](C)c23)cc1O	19.2	
CNC(=O)OCc1c(CO)nc(SC)n1C	> 100	
CN(C)CC(CC1=C(CC(CN(C)C)N(C)C)CCC1)N(C)C (centres undefined)	> 100	
O=c1cccccc1[O-].O=c1cccccc1[O-].[O]=[U+2]=[O]	47.3	25.7
O=C(OCN1C(=O)C2C3C=CC(C2C1=O)C1C2C(=O)N(COC(=O)C4CCCN4)C(=O)C2C31)C1CCCN1 (centres undefined)	> 100	
[N-]=[N+]=CC(=O)c1ccccc1C#CCCc1ccccc1	41.3	
